{"source": "patent US8911750B2", "about": "“Lung volume reduction therapy using crosslinked biopolymers” (priority 2007, dated 2014)", "test_system": "tissue", "experiment": "Local tissue toxicity of glutaraldehyde by concentration", "type": "in vivo", "details": "below this level limited local toxicity"}
{"molecule": "O=CCCCC=O", "note": "[glutaraldehyde]", "values": [{"measurement": "concentration that produces significant tissue necrosis", "value": "≥ 0.75", "unit": "%"}]}
